The text below walks through data of article PMC10343299, “S-Ethyl-Isothiocitrullin-Based Dipeptides and 1,2,4-Oxadiazole Pseudo-Dipeptides: Solid Phase Synthesis and Evaluation as NO Synthase Inhibitors” (Molecules, 2023).

Test [1] concerns the target T1, oxygenase domain of iNOS (iNOSoxy) (Mus musculus, UniProt P29477).
T1 construct: the oxygenase domain of nNOS (nNOSoxy) and iNOS (iNOSoxy); made in house; host or cells: Escherichia coli
T1 sequence (P29477 1-498 limits assumed): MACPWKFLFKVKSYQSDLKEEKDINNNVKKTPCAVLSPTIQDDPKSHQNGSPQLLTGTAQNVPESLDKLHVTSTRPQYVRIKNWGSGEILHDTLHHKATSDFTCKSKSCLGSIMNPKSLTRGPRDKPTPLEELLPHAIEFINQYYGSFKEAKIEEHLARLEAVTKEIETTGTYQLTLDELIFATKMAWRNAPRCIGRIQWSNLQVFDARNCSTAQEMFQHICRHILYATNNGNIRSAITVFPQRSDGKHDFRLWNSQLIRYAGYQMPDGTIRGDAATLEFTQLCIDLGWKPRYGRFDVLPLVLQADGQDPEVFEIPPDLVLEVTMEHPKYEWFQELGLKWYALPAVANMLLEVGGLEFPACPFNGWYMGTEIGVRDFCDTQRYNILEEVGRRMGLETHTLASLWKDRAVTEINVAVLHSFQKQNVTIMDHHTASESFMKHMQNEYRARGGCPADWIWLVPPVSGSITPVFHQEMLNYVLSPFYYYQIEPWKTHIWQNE
The experiment in a line: UV-visible difference spectroscopy titration of iNOSoxy. Format: binding. To be noted: UV/Vis difference spectroscopy, ± SD, three experiments; read-out: Apparent equilibrium constant Ks iNOSoxy. The text has this: We performed UV–visible difference spectroscopy to analyze the interaction mode of some inhibitors with the heme-active site of NOS [54]. We have studied the effects of dipeptide-like compounds 7, 17, 19, 23, and 27 and 1,2,4-oxadiazole 35 on the UV–visible spectra of the oxygenase domain of nNOS (nNOSoxy) and iNOS (iNOSoxy). As expected, when added stepwise to n- and iNOSoxy, all selected compounds elicited different spectra with a trough at ~425 nm and a peak at ~395 nm, similar to the substrate L-arginine. This profile is characteristic of type I interactions, meaning that they are bound in close proximity to the heme prosthetic group and shifted the spin state equilibrium to the pentacoordinated heme–Fe^III state. Double reverse plotting of the differences in absorbance between the peak at ~395 nm and valley at ~425 nm (ΔA395–425 nm) as a function of the concentration of the added compounds allowed calculating apparent binding constants (Ks) (Table 3). The reference inhibitor SEITU [55] tightly bound both NOS isoforms with high affinity but no selectivity. With the exception of the dipeptide-like 27 and the heterocyclic analog 35, which similarly interacted with both proteins, other compounds preferentially bound nNOSoxy over iNOSoxy with apparent affinities close to SEITU for this isoform.
Full-length recombinant rat nNOS, mouse iNOS, bovine eNOS, and the heme domains of rat brain nNOS and mouse iNOS were expressed in Escherichia coli and purified as described previously.
This study was performed as previously described.

A further test concerns INS-1 cells (nNOS). The experiment in a line: Glucose-induced insulin secretion. Format: cell-based. To be noted: 5.6 mM glucose, no IL-1β, 1 h, compounds 500 µM to 5 mM, L-NAME 5 mM. On the procedure:
Indeed, pancreatic β-cells are known to constitutively express the nNOS isoform, which negatively modulates glucose-induced insulin secretion.
The insulin-secreting cell line INS-1 (a gift from Prof. C. Wolheim, Geneva, Switzerland) was cultured in RPMI-1640 supplemented with 10% FCS, 100 units/mL penicillin, 100 µg/mL streptomycin, 2 mM L-glutamine, 10 mM HEPES, 1 mM sodium pyruvate, and […] 2-mercaptoethanol, according to M. Asfari et al.’s method.
The functional effects of compounds were evaluated on INS-1 cells. Cells were preincubated for 1 h at 37 °C in a Krebs–Ringer bicarbonate buffer (108 mM NaCl, 1.19 mM KH2PO4, 4.74 mM KCl, 2.54 mM CaCl2, 1.19 mM MgSO4·7H2O, and 18 mM NaHCO3) containing 2 g/L BSA in the absence of glucose. After removal of the medium, the cells were stimulated for another hour at 37°C in the same buffer in the presence of 5.6 mM glucose and the presence of increasing concentrations of L-NAME or compounds (from 500 µM to 5 mM). At the end of the incubation period, the medium was collected, and the insulin was measured using an insulin high-range assay kit (CisBio, Codolet, France). Data are expressed as means ± SEM of the experiments (indicated in the result part).

With `CCSC(=N)NCCC[C@H](N)C(=O)N[C@H]1CCCN(Cc2ccccc2)C1` [Compound 7], the Kd in test [1] stood at 406 ± 97 µM. In addition, in the test on INS-1 cells (nNOS), the “Effect on insulin secretion” value is reported as “dose-dependently stimulate glucose insulin secretion with better efficiency than L-NAME”.
For `CCSC(=N)NCCC[C@H](N)C(=O)N[C@H]1CCCN(Cc2ccc(Cl)c(C(F)(F)F)c2)C1` [Compound 17], in that order: 36.4 ± 4.6 µM and “dose-dependently stimulate glucose insulin secretion with better efficiency than L-NAME”.
For `CCSC(=N)NCCC[C@H](N)C(=O)N[C@H]1CCCN(Cc2cccc(-c3cccc(C(=O)O)c3)c2)C1` [Compound 27], in that order: 57.9 ± 8 µM and “dose-dependently stimulate glucose insulin secretion with better efficiency than L-NAME”.
